Experiment [1] concerns the target T1, Ovo-SLO-1A (Onchocerca volvulus, UniProt A0A2K6W0E9). Briefly: Voltage step electrophysiology (current-voltage relationship), Ovo-SLO-1A oocytes. It counts as cell-based. Conditions: 1 µM emodepside. The protocol:
(§1) Briefly, oocytes expressing either Bma-SLO-1F or Ovo-SLO-1A channels were impaled and subjected to a current-voltage protocol that consisted of 500 ms voltage steps from -120 to + 60 mV in 20 mV increments, starting from a holding position of -70 mV for 1 s between each step. Plateau currents were recorded at a frequency of 5000 Hz during clamping and perfused with recording solution: (88 mM NaCl, 2.5 mM, KCl, 1 mM MgCl2.6H2O, 1.8 mM CaCl2.2H2O and 5 mM HEPES, at pH 7.4). The results of the voltage steps were evaluated and analyzed using the ClampFit 10.3 software (Molecular Devices), whereas current-voltage curves (IVCs) were prepared using Graphpad Prism 10.1.1(GraphPad Software, Inc., USA).
(§2) To obtain current-voltage curves (IVCs) from our voltage steps experiments, plateau currents elicited at each step potential (-120 to + 60 mV) were acquired for individual oocytes in Clampfit 10.3 (Molecular Devices, Sunnyvale, CA, USA). Mean currents for all replicate oocytes were plotted against their corresponding voltage step potentials to obtain IVCs using Graphpad Prism 10.1.1 software (GraphPad Software, Inc., USA). […] Subsequently, statistical differences for slope values among treatment groups were analyzed using ANOVA, followed by the Tukey multiple comparison post-hoc test. Results were expressed as mean ± S.E.M.

Experiment [2] has as its target T1, Ovo-SLO-1A. The experiment can be described thus: Two-electrode voltage clamp of Xenopus oocytes expressing Ovo-SLO-1A. It is filed as cell-based. The protocol:
(§3) Defolliculated Xenopus laevis oocytes were purchased from Ecocyte Bioscience (Austin, TX, USA) and Xenopus 1 Corp (Dexter, MI, USA). Heterologous expression of the Bma-SLO-1F receptor was achieved by injecting 15 ng of cRNA in a total volume of 50 nL in nuclease-free water. Each oocyte was microinjected into the cytoplasm of the animal pole region using a Drummond Nanoject II microinjector (Drummond Scientific, Broomall, PA, USA). After injection, oocytes were incubated at 17°C in a sterile 96-well culture plate containing 300 μl of incubation solution (100 mM NaCl, 2 mM KCl, 1.8 mM CaCl2.2H2O, 1 mM MgCl2.6H2O, 5 mM HEPES, 2.5 mM Na pyruvate, 100 U/mL penicillin and 100 μg/mL streptomycin, pH 7.5) in each well. Incubation solution was changed daily during the period of incubation. The same procedure was also conducted for the Ovo-SLO-1A receptor. Experiments were performed on oocytes within 5 – 6 days post injection.
(§4) TEVC was conducted at room temperature by impaling oocytes with two microelectrodes; a current injecting electrode, Im, used to inject the required current for holding the membrane at a set voltage, and a voltage sensing electrode, Vm. The microelectrodes were pulled using a Flaming/Brown horizontal electrode puller (Model P-97; Sutter Instruments, Novato, CA, USA) and filled with 3 M KCl. Each electrode tip was broken with a piece of Kimwipe paper (Kimtech Science, Fisher) to achieve a resistance of 2 – 5 MΏ in recording solution (88 mM NaCl, 2.5 mM KCl, 1 mM MgCl2.6H2O, 1.8 mM CaCl2.2H2O and 5 mM HEPES, at pH 7.4). […] Amplified signals were converted from analog to digital format by a Digidata 1322A digitizer (Molecular Devices, CA, USA) and all data were acquired on a desktop computer with the Clampex 10.3 data acquisition software (Molecular Devices, Sunnyvale, CA, USA).
(§5) For our recordings, the times for drug applications were selected to allow the currents recorded to reach a stable plateau. At the beginning of experiments the Xenopus oocytes were perfused with drug free recording solution for 1 min, to obtain stable initial resting currents. […] Washing of the Xenopus oocytes then followed for 3 mins.
(§6) GraphPad Prism 10.1.1 software (GraphPad Software Inc., USA) was used to generate Concentration-response curves using the log agonist vs. response equation (variable slope) to estimate EC50, Rmax and Hillslope (nH) values for both Bma-SLO-1F and Ovo-SLO-1A channels. We also used the unpaired two-tailed Student’s t-test to test for statistical significance. A p value < 0.05 was deemed significant. The analyzed results were expressed as mean ± S.E.M.
(§7) The results were expressed as the mean ± S.E.M.
(§8) Results were expressed as the mean ± S.E.M.
On the technique in general: In two-electrode clamp one electrode senses voltage and the other passes current.

Experiment [3] concerns the target T2, Bma-SLO-1F (Brugia malayi, UniProt A0A0J9Y9H3). The experiment can be described thus: Two-electrode voltage clamp of Xenopus oocytes expressing Bma-SLO-1F. It counts as cell-based. The method, then:
as §3, §4, §5, §6, §7, §8

For experiment [4], the target named is T2, Bma-SLO-1F. The experiment can be described thus: Voltage step electrophysiology (current-voltage relationship), Bma-SLO-1F oocytes. It is filed as cell-based. The protocol:
as §1, §2

For experiment [5], the system named is water injected oocytes (endogenous channels of Xenopus laevis). Briefly: Electrophysiology of water injected oocytes (control). It is filed as cell-based. The method, then: as §4, §1
To obtain current-voltage curves (IVCs) from our voltage steps experiments, plateau currents elicited at each step potential (-120 to + 60 mV) were acquired for individual oocytes in Clampfit 10.3 (Molecular Devices, Sunnyvale, CA, USA). […] Subsequently, statistical differences for slope values among treatment groups were analyzed using ANOVA, followed by the Tukey multiple comparison post-hoc test. Results were expressed as mean ± S.E.M.

For experiment [6], the system named is mammalian BK channel. More on the design: method as in PMID 24561672. Particulars: mammalian BK channel activator; cited from earlier work.
Setting [7] is: 0.3 µM emodepside + 3 µM GoSlo-SR-5-69 co-applied, n = 6.
Where [8] appears, read: absence of GoSlo-SR-5-69, modulation experiment, n = 6.
Setting [9] is: emodepside alone, +20 mV, n = 10.
Where [10] appears, read: emodepside concentration-response, n = 10.
Setting [11] is: in the presence of 3 µM GoSlo-SR-5-69, n = 6.
[12] abbreviates: 3 µM GoSlo-SR-5-69 + 0.3 µM emodepside, Ca2+ replaced with equimolar Co2+.
Where [13] appears, read: 3 µM GoSlo-SR-5-69 alone, +20 mV.
[14] abbreviates: 3 µM GoSlo-SR-5-69 on 0.3 µM emodepside response.

“Also recorded” adds a separate entry of the source.

By EC50 is commonly meant the concentration that produces a half-maximal response.

T2 sequence (A0A0J9Y9H3 entry or part of it): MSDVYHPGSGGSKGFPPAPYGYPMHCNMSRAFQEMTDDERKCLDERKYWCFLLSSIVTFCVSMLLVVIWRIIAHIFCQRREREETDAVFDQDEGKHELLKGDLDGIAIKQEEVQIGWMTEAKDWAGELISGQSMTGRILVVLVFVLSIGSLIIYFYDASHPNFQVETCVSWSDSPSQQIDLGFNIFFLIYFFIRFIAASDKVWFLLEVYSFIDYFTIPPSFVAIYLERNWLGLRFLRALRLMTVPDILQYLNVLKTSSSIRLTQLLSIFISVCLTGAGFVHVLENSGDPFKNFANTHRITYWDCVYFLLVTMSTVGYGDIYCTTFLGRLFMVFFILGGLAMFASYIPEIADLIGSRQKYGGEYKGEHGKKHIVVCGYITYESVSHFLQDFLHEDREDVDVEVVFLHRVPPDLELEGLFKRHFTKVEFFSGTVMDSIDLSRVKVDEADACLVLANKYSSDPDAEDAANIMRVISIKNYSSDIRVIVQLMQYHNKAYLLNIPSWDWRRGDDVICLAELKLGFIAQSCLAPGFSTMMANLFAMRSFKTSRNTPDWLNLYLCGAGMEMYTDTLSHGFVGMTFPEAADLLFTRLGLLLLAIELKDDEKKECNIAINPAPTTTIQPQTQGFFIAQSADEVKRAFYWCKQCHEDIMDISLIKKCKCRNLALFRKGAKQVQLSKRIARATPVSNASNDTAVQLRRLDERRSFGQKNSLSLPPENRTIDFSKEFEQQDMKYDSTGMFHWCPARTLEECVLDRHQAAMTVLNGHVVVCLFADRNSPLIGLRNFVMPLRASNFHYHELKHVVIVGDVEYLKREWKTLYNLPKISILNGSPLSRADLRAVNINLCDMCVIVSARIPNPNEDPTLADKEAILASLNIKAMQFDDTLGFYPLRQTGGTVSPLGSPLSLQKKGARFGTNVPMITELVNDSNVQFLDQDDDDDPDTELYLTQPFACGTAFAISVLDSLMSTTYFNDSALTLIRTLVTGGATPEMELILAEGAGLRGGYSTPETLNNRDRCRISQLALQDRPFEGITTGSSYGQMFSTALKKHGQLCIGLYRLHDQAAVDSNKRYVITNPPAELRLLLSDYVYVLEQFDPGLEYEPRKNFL
T1 sequence (A0A2K6W0E9 entry or part of it): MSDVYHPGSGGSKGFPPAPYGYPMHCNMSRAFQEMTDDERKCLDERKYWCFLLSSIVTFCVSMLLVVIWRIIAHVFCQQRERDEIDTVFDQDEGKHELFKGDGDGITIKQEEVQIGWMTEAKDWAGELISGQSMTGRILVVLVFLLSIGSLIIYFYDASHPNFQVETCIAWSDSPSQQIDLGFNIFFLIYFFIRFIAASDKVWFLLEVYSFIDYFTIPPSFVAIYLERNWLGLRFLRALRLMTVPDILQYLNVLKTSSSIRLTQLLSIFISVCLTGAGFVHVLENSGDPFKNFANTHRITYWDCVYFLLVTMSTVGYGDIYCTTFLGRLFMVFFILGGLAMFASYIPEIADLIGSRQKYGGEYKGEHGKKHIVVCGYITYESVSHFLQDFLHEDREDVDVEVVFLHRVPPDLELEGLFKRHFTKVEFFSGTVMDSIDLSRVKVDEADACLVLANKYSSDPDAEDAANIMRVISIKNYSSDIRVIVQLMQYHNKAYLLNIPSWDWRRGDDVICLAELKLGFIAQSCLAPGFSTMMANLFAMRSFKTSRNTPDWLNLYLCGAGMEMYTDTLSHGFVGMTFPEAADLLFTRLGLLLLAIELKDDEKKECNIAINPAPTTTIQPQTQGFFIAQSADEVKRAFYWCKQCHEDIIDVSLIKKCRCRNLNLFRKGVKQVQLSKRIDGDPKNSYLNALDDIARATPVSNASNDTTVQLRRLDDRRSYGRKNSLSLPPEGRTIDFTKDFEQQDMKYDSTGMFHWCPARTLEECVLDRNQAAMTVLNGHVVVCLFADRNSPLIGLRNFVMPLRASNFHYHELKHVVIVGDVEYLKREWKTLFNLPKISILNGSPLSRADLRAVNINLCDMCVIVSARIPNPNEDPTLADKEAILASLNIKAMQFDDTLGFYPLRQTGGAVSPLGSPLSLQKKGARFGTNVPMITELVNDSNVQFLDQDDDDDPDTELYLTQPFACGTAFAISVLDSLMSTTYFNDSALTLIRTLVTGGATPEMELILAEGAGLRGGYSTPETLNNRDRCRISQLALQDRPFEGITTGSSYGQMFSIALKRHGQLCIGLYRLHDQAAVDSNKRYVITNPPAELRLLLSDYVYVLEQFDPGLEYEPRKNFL

On to emodepside, for which the reversal potential in experiment [1] (no change from basal) is recorded as -71 mV; in experiment [4] (all current voltage plots, with and without 1 µM emodepside), roughly -72 mV. Moreover, the slope conductance in experiment [1] (voltage steps -120 to +60 mV, n = 6 (basal 26 ± 2.9 µS)) is on record as 61 ± 4.4 µS; in experiment [4] (1 µM emodepside, voltage steps -120 to +60 mV, n = 6 (basal 2.4 ± 0.3 µS)), 12 ± 1.0 µS. Also, the current response in experiment [2] (setting [7]) is given as 6735 ± 272 nA; in experiment [2] (0.3 µM emodepside alone, n = 6), 4170 ± 355 nA. Moreover, the “sensitivity of Ovo-SLO-1A to emodepside relative to Bma-SLO-1F (EC50 ratio)” value in experiment [2] (Ovo-SLO-1A vs Bma-SLO-1F) is reported as 3.5 times. Also, the Rmax of emodepside was found to be 2454 ± 87 nA in experiment [2] (setting [8]), 4928 ± 830 nA in experiment [2] (setting [11]), 2679 ± 318 nA in experiment [3] (setting [8]) and 4493 ± 433 nA in experiment [3] (setting [11]). Moreover, the “maximum response (Rmax)” value in experiment [2] (setting [9]) worked out at 10762 ± 478 nA; in experiment [3] (setting [9]), 6446 ± 287 nA. The figures for the Hillslope in experiment [2] (setting [10]) and in experiment [3] (setting [10]) were 1.2 ± 0.1 and 1.1 ± 0.1, respectively. Further, the “current (Imax) response” value stood at 2799 ± 100 nA in experiment [3] (setting [7]) and 954 ± 355 nA in experiment [3] (0.3 µM emodepside alone, n = 6). Moreover, the “response of water injected oocytes” value in experiment [5] (0.3 µM emodepside, +20 mV) is recorded as “no response”. Further, the “effect on current and conductance of water injected oocytes” value in experiment [5] (1 µM emodepside, voltage steps) is given as “little or no agonist effects; also recorded: no detectable change”.
Regarding `Nc1c(S(=O)(=O)O)cc(Nc2ccc3c(c2)CCCC3)c2c1C(=O)c1ccccc1C2=O` [GoSlo-SR-5–69], the “change in emodepside Rmax” value in experiment [2] (3 µM GoSlo-SR-5-69) is “significantly increased”. For the same compound, the “shift in emodepside EC50” value in experiment [2] (3 µM GoSlo-SR-5-69) is reported as “did not cause a significant shift; also recorded: remained unchanged”. For the same compound, the “potentiation of emodepside responses in the absence of extracellular Ca2+” value in experiment [2] (setting [12]) and in experiment [3] (setting [12]) was “still potentiated” throughout. The “agonist activity (channel activation) alone” value in experiment [2] (setting [13]) and in experiment [3] (setting [13]) was “lacks agonist activity; also recorded: does not by itself activate” each time. Moreover, the “percentage increase in peak currents of the emodepside response” value in experiment [2] (setting [14]) is on record as 65.2%; in experiment [3] (setting [14]) it was 200%. The “increase in emodepside Rmax” value in experiment [3] (3 µM GoSlo-SR-5-69) was found to be 1.7 fold. Moreover, in experiment [3] (3 µM GoSlo-SR-5-69), the “increase in sensitivity to emodepside (EC50 shift)” value is given as 7 fold. For the same compound, the EC50 in experiment [6] is 251 nM. Further, the “current produced in water injected oocytes” value in experiment [5] (3 µM GoSlo-SR-5-69, +20 mV, also seen in SLO-1 expressing oocytes) is “slowly inactivating inward current”.

The record behind these values is publication PMC12440207 (PLOS Pathogens, 2025).
